# Results taken from US20140242093A1, “METHODS AND COMPOSITIONS FOR MODULATING THE INNATE IMMUNE RESPONSE AND/OR MYOGENESIS IN A MAMMALIAN SUBJECT” (FRED HUTCHINSON CANCER RESEARCH CENTER, priority 2011, published 2014).
# System: human genome (hg18)
# Assay: ChIP-Seq of DUX4 binding sites in transduced primary myoblasts
# Settings: for max.cov (peak height): non-repeat binding site
# Protocol: Non-redundant reads unambiguously mapped to the human genome were computationally extended to a total length of 200 nucleotides and “peaks” were defined as regions where the number of reads was higher than a statistical threshold compared to the background, as described below. Reads mapping to the X and Y chromosomes were excluded from the analysis.
# ChIP was performed and ChIP DNA samples were prepared as previously described in Cao et al., Dev. Cell 18:662-674 (2010), hereby incorporated herein by reference. […] Anti-DUX4 N-terminus polyclonal antibodies FH106 and FH107 were combined to immunoprecipitate DUX4-s. The samples were sequenced with Illumina Genome Analyzer II.
# Sequences were extracted by Illumina package GApipeline and reads were aligned using BWA to the human genome (hg18). The inventors only kept one of the duplicated sequences to minimize the artifacts of PCR amplification. Each read was extended in the sequencing orientation to a total of 200 bases to infer the coverage at each genomic position. Peak calling was performed by a house developed R package “peakSig” (pending submission to Bioconductor), which model background reads by a negative binomial distribution. The negative binomial distribution can be viewed as a continuous mixture of Poisson distribution where the mixing distribution of the Poisson rate is modeled as a Gamma prior. This prior distribution is used to capture the variation of background reads density across the genome. Model parameters were estimated by fitting the truncated distribution on the number of bases with low coverage (one to three), to avoid the problem of inferring effective genome size excluding the non-mappable regions, and to eliminate contamination of any foreground signals in the high coverage regions. The inventors also fit a GC dependent mixture model so that the significance of the peaks is determined not only by peak height, but also by the GC content of the neighboring genomic regions.
# Discriminative motif discovery was carried out as described in Palii et al. (2011), in which motifs were identified that distinguish a positive and a negative sequence dataset, which in this study, the positive sequences correspond to Dux4 binding sites and negative sequences correspond to the randomly sampled flanking regions of Dux4 binding sites. To generate more accurate presentation of the Dux4 binding sites from the consensus pattern returned by this analysis, the inventors tried to learn a positional weight matrix (PWM) model, using the matches of the consensus pattern as the seed to initialize the iterative expectation-maximization (EM) refinement process similar to MEME. If appropriate, the motifs are extended iteratively as long as there is sequence preference in the flanking region, and refined in the same EM process.
# The inventors associated a peak to its closest TSS within the region flanked by CTCF binding sites, which were identified in a ChIP-seq experiment on human CD4+ T cells (GEO accession number GSE12889/GSM325895).
substance,measurement,setting,value
"DUX4-fl: full-length DUX4 protein (SEQ ID NO:110), expressed from lentiviral or pCS2 vectors or in vitro translated",enrichment of binding in the MaLR family of retrotransposons,,~10 fold
same,share of sequences under the peaks with a second larger (LTR) motif,,Approximately 30%
same,number of ChIP-Seq peaks,"P-value threshold 10^−10, background peaks subtracted","62,028 peaks"
same,number of ChIP-Seq peaks,"P-value threshold 10^−15, background peaks subtracted","39,737 peaks"
same,share of peaks with motif TAAYBBAATCA near the center,de novo motif analysis,greater than 90%
same,max.cov (peak height),"AVPI1, chr10, dist2tss 126",56
same,max.cov (peak height),"BZW2, chr7, dist2tss 1939",63
same,max.cov (peak height),"BZW2, chr7, dist2tss 1955",86
same,max.cov (peak height),"C1orf63, chr1, dist2tss −1326",132
same,max.cov (peak height),"C6orf191, chr6, dist2tss 61",250
same,max.cov (peak height),"C14orf102, chr14, dist2tss −558",159
same,max.cov (peak height),"C14orf138, chr14, dist2tss 326",53
same,max.cov (peak height),"C14orf138, chr14, dist2tss −4696",50
same,max.cov (peak height),"C21orf91, chr21, dist2tss −803",274
same,max.cov (peak height),"CBARA1, chr10, dist2tss 2340",70
same,max.cov (peak height),"CBARA1, chr10, dist2tss 4786",250
same,max.cov (peak height),"CCNA1, chr13, dist2tss 1874",58
same,max.cov (peak height),"CCNA1, chr13, dist2tss −2425",56
same,max.cov (peak height),"CCNJ, chr10, dist2tss −637",265
same,max.cov (peak height),"CLDN14, chr21, dist2tss −2523",96
same,max.cov (peak height),"CLK1, chr2, dist2tss 4634",163
same,max.cov (peak height),"CSE1L, chr20, dist2tss −1935",57
same,max.cov (peak height),"CSE1L, chr20, dist2tss −5914",53
same,max.cov (peak height),"CTNNAL1, chr9, dist2tss 641",198
same,max.cov (peak height),"CTR9, chr11, dist2tss 1913",46
same,max.cov (peak height),"DBR1, chr3, dist2tss 3981",117
same,max.cov (peak height),"DDX47, chr12, dist2tss −4416",55
same,max.cov (peak height),"DEFB103A, chr8, dist2tss −2289",55
same,max.cov (peak height),"DENND2C, chr1, dist2tss −3169",116
same,max.cov (peak height),"EGLN1, chr1, dist2tss −1",205
same,max.cov (peak height),"EXOSC10, chr1, dist2tss 150",139
same,max.cov (peak height),"FAM90A1, chr12, dist2tss −1597",129
same,max.cov (peak height),"FBXO33, chr14, dist2tss −2226",117
same,max.cov (peak height),"FRG2B, chr10, dist2tss 598",200
same,max.cov (peak height),"GPBAR1, chr2, dist2tss −224",150
same,max.cov (peak height),"GTF2F1, chr19, dist2tss 134",83
same,max.cov (peak height),"HOXB2, chr17, dist2tss −2471",283
same,max.cov (peak height),"JUP, chr17, dist2tss −701",177
same,max.cov (peak height),"KDM5B, chr1, dist2tss 301",93
same,max.cov (peak height),"KIF21A, chr12, dist2tss −1030",37
same,max.cov (peak height),"KIF21A, chr12, dist2tss −4249",73
same,max.cov (peak height),"MAPKAP1, chr9, dist2tss 3619",153
same,max.cov (peak height),"MAPKAP1, chr9, dist2tss −4397",69
same,max.cov (peak height),"MAST4, chr5, dist2tss −1253",269
same,max.cov (peak height),"MED13, chr17, dist2tss −2755",43
same,max.cov (peak height),"NANS, chr9, dist2tss 1843",85
same,max.cov (peak height),"NFYA, chr6, dist2tss 49",159
same,max.cov (peak height),"PABPN1, chr14, dist2tss −529",257
same,max.cov (peak height),"PANX2, chr22, dist2tss −2040",118
same,max.cov (peak height),"PELI1, chr2, dist2tss 4936",85
same,max.cov (peak height),"PNP, chr14, dist2tss −104",344
same,max.cov (peak height),"PPP2R2B, chr5, dist2tss 2498",91
same,max.cov (peak height),"PRAMEF12, chr1, dist2tss −1230",99
same,max.cov (peak height),"PRPF18, chr10, dist2tss 3230",57
same,max.cov (peak height),"PRR4, chr12, dist2tss 83",54
same,max.cov (peak height),"PTP4A1, chr6, dist2tss −2227",105
same,max.cov (peak height),"PVRL3, chr3, dist2tss 2678",51
same,max.cov (peak height),"RBBP6, chr16, dist2tss −1619",76
same,max.cov (peak height),"RBBP6, chr16, dist2tss −1922",323
same,max.cov (peak height),"RBBP6, chr16, dist2tss −4040",46
same,max.cov (peak height),"RFPL1, chr22, dist2tss −3042",124
same,max.cov (peak height),"RFPL2, chr22, dist2tss 3057",129
same,max.cov (peak height),"RFPL2, chr22, dist2tss −2853",118
same,max.cov (peak height),"RFPL4B, chr6, dist2tss −321",232
same,max.cov (peak height),"RTN4, chr2, dist2tss 1853",115
same,max.cov (peak height),"RTN4, chr2, dist2tss −2562",52
same,max.cov (peak height),"SAMD8, chr10, dist2tss 3338",43
same,max.cov (peak height),"SEC61A2, chr10, dist2tss −1861",172
same,max.cov (peak height),"SFRS2B, chr11, dist2tss 42",373
same,max.cov (peak height),"SH3GL2, chr9, dist2tss −4600",88
same,max.cov (peak height),"SIAH1, chr16, dist2tss −2337",118
